Results on five molecules are retold here after patent US20250043290A1, “RNA SEQUENCES THAT INDUCE FLUORESCENCE OF SMALL MOLECULE FLUOROPHORES, MOLECULAR COMPLEXES, SENSORS, AND METHODS OF USE THEREOF” (CORNELL UNIVERSITY, priority 2021, published 2025).

Positions count from the first letter of the chain named. Read-outs that look alike come from different tables or passages of the source. Marks after values point to notes of the source that are not given here.

Data set [1] in a line: Photophysical properties of fluorophores and RNA-fluorophore complexes (Squash study). Format: physicochemical. As for the experimental part:
All RNAs used for in vitro studies (except the initial hits from SELEX and the DE2-6 mutants) were purified using 8% denaturing PAGE (7M urea) and eluted in 0.3 M NaOAc (pH 5.2) overnight. The RNA was ethanol precipitated and quantified using absorbance in a NanoDrop 2000 spectrometer. All in vitro RNA properties were measured in 40 mM HEPES-KOH (pH 7.4), 100 mM KCl, 0.5 mM MgCl2 buffer unless specified.
Absorption, excitation, and emission spectra were measured using conditions where the RNA is in excess and the fluorophore is limiting to ensure that no free fluorophore contributes to the absorbance or fluorescence signal (FIGS. 7A-7D).
All quantum yields were determined by comparing each RNA-fluorophore complex with Broccli-DFHBI-1T or Corn-DFHO. All measurements for quantum yield were taken in the presence of excess RNA (10 μM final) compared to the fluorophores (0.2 μM final) to avoid interference from unbound fluorophore. The integral of the emission spectra for each Squash-fluorophore complex was compared with the corresponding integrals for Broccoli or Corn to calculate the quantum yield.

For data set [2] the following is noted: data from Song et al., cited from earlier work.
Data set [3] in a line: Fluorescence activation of DFAME by aptamers in vitro. The class given is biochemical. The following applies: in vitro. How it is done:
To test whether Beetroot can activate DFHO, the fluorescence emission spectrum of the Beetroot-DFHO complex was measured. In brief, 20 μM Beetroot and 2 μM DFHO were mixed, and the fluorescence emission of the Beetroot-DFHO complex was measured. […] To test whether Beetroot can activate DFHBI-1T, the fluorescence emission spectrum of the Beetroot-DFHBI-1T complex was measured using the same protocol described in FIG. 32A. […] To test whether Beetroot can activate BI, the fluorescence emission spectrum of the Beetroot-BI complex was measured using the same protocol described in FIG. 32A. […] To test whether Corn can activate DFAME, the fluorescence emission spectrum of the Corn-DFAME complex was measured using the same protocol described in FIG. 32A.
The eluted RNAs were then ethanol precipitated, reverse transcribed, PCR amplified and in vitro transcribed to yield the pool for the next SELEX round. The presence of fluorescent RNA species in each pool was assessed by mixing 20 μM RNA and 10 μM DFAME and measuring fluorescence emission of this solution on a fluorometer in comparison with the fluorophore alone. At this point, RNAs were cloned into bacterial expression plasmids for FACS-based screening.
dsDNA encoding the top-performing RNA sequences from the brightest bacterial colonies was PCR amplified from the purified plasmids. […] The resulting RNA was then purified using Zymo RNA concentrator columns and quantified by absorbance using a Thermo Scientific NanoDrop 2000 spectrophotometer. For absorption, excitation and emission spectra measurements, “excess RNA” conditions and limiting amount of fluorophore was used to ensure that no free fluorophore contributes to the absorbance or fluorescence signal. The RNA concentration used for fluorescence and absorbance measurements was 20 μM and 50 μM, respectively, while the dye concentration was 2 μM and 5 μM, respectively. All in vitro RNA properties were measured in 40 mM HEPES pH 7.4, 100 mM KCl, 5 mM MgCl2 buffer, unless specified.

A short description of data set [4]: Fluorescence activation of DFHBI-1T by aptamers in vitro. The class given is biochemical. From the text: FIG. 1A is a schematic illustrating the strategy for evolution of the add A-riboswitch aptamer. Indicated are helices P1-P3, junctional strands (J1/2, J2/3, J3/1), kissing loop (gray lines), and adenine interactions with the aptamer (dotted line) (5′-CUUCAUAUAAUCCUAAUGAUAUGGUUUGGGAGUUUCUACCAAGAGCCUUAAACUCUUGAUUAUGAAG-3′ (SEQ ID NO:36)). The chemical structure of adenine and fluorophores are shown. Three regions (Region 1: 5′-UAU AAU-3′ (SEQ ID NO:37)), Region 2: 5′-AGU UUC UAC C-3′ (SEQ ID NO:38); Region 3: 5′-GAU UAU-3′ SEQ ID NO:39), which include J1/2, J2/3, and J3/1 were randomized in both size and sequence resulting in a sprouts/clips library for SELEX. Each nucleotide in the colored regions was replaced using a combination of random stochastic deletion (designated “N”) and random stochastic insertion (designated “n”). FIG. 1B is schematic showing a three dimensional structure of the add A-riboswitch aptamer highlighting the adenine-binding pocket (PDB 1Y26). The mutagenized regions are shown in the same color as FIG. 1A. Adenine is indicated by the arrow. FIG. 1C is a schematic illustrating the evolution of the add A-riboswitch aptamer into Squash, a DFHBI-1T-binding aptamer. The sprouts/clips library was selected for binding to DFHBI-conjugated agarose resulting in aptamer 9-1. Aptamer 9-1 was subjected to two consecutive rounds of directed evolution generating DE2-6. A pair of mutations was introduced in DE2-6 to strengthen the kissing loop interaction resulting in Squash. FIG. 1D is a graph showing fluorescence activation of DFHBI-1T by different aptamer intermediates that led to Squash. The values inside the bars indicate fold-activation of DFHBI-1T fluorescence by the corresponding aptamer. Data represent mean values±s.d. for n=3 independent experiments. […]
(§1) FIG. 6A is a bar graph showing fluorescence activation of DFHO by Squash and its precursors. Fluorescence was measured with 200 nM dye and 10 μM RNA (ex: 495 nm, em: 562 nm, except for Corn; ex: 505 nm, em: 545 nm). […] FIG. 6B is a bar graph showing fluorescence of initial hits after Round 7 of SELEX. In vitro transcribed RNAs from each hit (1 μM final) were mixed with DFHBI-1T (10 μM final) and the fluorescence was measured (ex: 452 nm, em: 503 nm, except for Broccoli; ex: 472 nm, em: 507 nm). […] FIGS. 6C-6D are bar graphs showing fluorescence measurements of the hits with DFHBI-1T after first (FIG. 6C) and second (FIG. 6D) round of directed evolution, measured as in FIG. 6B. […] FIG. 6E is a bar graph showing fluorescence measurements of hits using DFHO after the second round of directed evolution measured as in FIG. 6A. The fluorescence of the hits were normalized against Corn. […] FIG. 6F is a graph showing normalized fluorescence. […] Fluorescence was measured as in FIG. 6A. […]

Data set [5] in a line: Fluorescence activation of DFHO by aptamers in vitro. Format: biochemical.
Text: FIG. 2A is a schematic showing the secondary structure of Squash as predicted by mFOLD (Squash: 5′-GGCUACAAGGUGAGCCCAAUAAUACGGUUUGGGUUAGGAUAGGAAGUAGAGCCGUAAACUCUCUAAGCGGUAGUC-3′ (SEQ ID NO:1)). Squash retained the main structural elements of add A-riboswitch aptamer including a 3-way junction and predicted kissing loop interactions (residues at positions 30, 31, 56, and 57, solid gray line). An additional base pair in the kissing loop between loop L2 and L3 (residues at positions 29 and 58, dotted gray line) improved fluorescence activation. […] Shown are the excitation (Ex) and emission (Em) spectra of Squash bound to DFHBI-1T and DFHO (structures shown in inset). Spectra were measured using 20 μM RNA and 2 μM of the indicated fluorogenic dye. […] Fluorescence activation was measured by incubating 200 nM dye and 10 μM RNA. By using a large excess of RNA compared to the fluorophore, it was ensured that the fluorescence observed is from 200 nM RNA-fluorophore complex. Data represent mean values±s.d. for n=3 independent experiments. The values inside the bars indicate fold activation. AU, arbitrary units. FIG. 2D is a graph showing the dissociation constant (Kd) between Squash and DFHO as measured by titration of 50 nM Squash with increasing concentration of DFHO, and fitted using a one-site saturation model. […] FIG. 2E is a bar graph showing the results of an experiment in which Squash-DFHO fluorescence was measured in buffers containing exclusively the indicated cations. […] Similar to the parental add A-riboswitch aptamer (see Lemay et al., “Folding of the Adenine Riboswitch,” Chem. Biol. 13:857-868 (2006), which is hereby incorporated by reference in its entirety), Squash-DFHO has a low magnesium requirement for fluorescence activation. […]
as §1

The mark [6] stands for this setting: 40 mM HEPES-KOH (pH 7.4), 100 mM KCl, 0.5 mM MgCl2.

As for `CN1C(=O)/C(=C/c2cc(F)c(O)c(F)c2)N=C1/C=N/O` [DFHO, 4-(3,5-difluoro-4-hydroxybenzylidene)-1-methyl-5-oxo-4,5-dihydro-1H-imidazole-2-carbaldehyde oxime], the Emission maximum in data set [1] (setting [6]) and in data set [2] was 561 nm each time. The Excitation maximum in data set [1] (setting [6]) and in data set [2] was 473 nm throughout. For the same molecule, the Fluorescence quantum yield in data set [1] (compared with Broccoli-DFHBI-1T or Corn-DFHO) and in data set [2] was 0.0006 in each case. The Extinction coefficient in data set [1] (free DFHO, at 495 nm) is on record as 27,000** M^−1cm^−1; in data set [2] (DFHO alone, at 505 nm, pH 7.4 buffer), 19,800 M^−1cm^−1. In addition, the “Brightness (extinction coefficient × quantum yield)” value is listed as 0.22 in data set [1] (relative to Corn) and 0.16 in data set [2] (relative to Corn-DFHO).

B1: 10-1: RNA aptamer from 10 rounds of SELEX that binds DFAME, SEQ ID NO: 95 (nucleic acid)
chain: GCUUCCGUGCGACAUCAUGCGCGCGACUGCUUCGGCAGAGGUGGGUGGUGUGGAGGAGUAUCUG
modifications: RNA, backbone not given here
For the molecule B1, the “Fold fluorescence enhancement of DFAME” value in data set [3] is listed as “threefold”.

B2: 9-1: initial SELEX hit from sprouts/clips library, SEQ ID NO: 9 (nucleic acid)
chain: GCCUAGGCUUCAAGGUGGCCCAAUGAUAUGGUUUGGGUUAGGAUAGGAAUAAGAGCCUUAAACUCUUCAAAGCGGAAGUCUAGGC
modifications: listed as RNA, chemistry not given here
For the molecule B2, in data set [4], the “Fold activation of DFHBI-1T fluorescence” value is around 521 fold.

B3: DE1-2: brightest aptamer of first directed evolution, SEQ ID NO: 10 (nucleic acid)
chain: GCCUAGGCUUCAAGGUGAGCCCAAUAAUAUGGUUUGGGUUAGGAUAGGAAGAAGAGCCUUAAACUCUCUAAGCGGAAGUCUAGGC
modifications: listed as RNA, chemistry not given here
In the case of B3, in data set [4], the “Fold activation of DFHBI-1T fluorescence” value is on record as “approximately 790 fold”.

B4: DE2-6: aptamer of second directed evolution, SEQ ID NO: 11 (nucleic acid)
chain: B3 chain with U10A, A52U, A76U
modifications: listed as RNA, chemistry not given here
For B4, the “Fold activation of DFHBI-1T fluorescence” value in data set [4] is given as “approximately 949 fold”. Moreover, the “Fold activation of DFHO fluorescence” value in data set [5] is listed as around 492 fold.
